The text below walks through data of ChEMBL document CHEMBL6153090.

Active and inactive are the calls of the source. The calls are words filed in the database; no cut-off is given here.

Assay [1] deals with Sigma intracellular receptor 2 (Homo sapiens, UniProt Q5BJF2). Put plainly: Displacement of [3H]-pentazocine from human Sigma 2 receptor at 10 uM by cell-based radioligand binding assay. On the technique in general: Displacement assays read how much labelled ligand stays bound in the presence of the test substance.
Sigma intracellular receptor 2, sequence (Q5BJF2 whole entry): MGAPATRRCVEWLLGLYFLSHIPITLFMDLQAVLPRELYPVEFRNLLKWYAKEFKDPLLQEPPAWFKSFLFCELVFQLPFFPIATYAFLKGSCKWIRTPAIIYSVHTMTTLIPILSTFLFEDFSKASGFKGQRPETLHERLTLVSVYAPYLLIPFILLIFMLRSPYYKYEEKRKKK
Assay [2] addresses 5-hydroxytryptamine receptor 2B (Homo sapiens, UniProt P41595). Put plainly: Displacement of [3H]-LSD from human 5-HT2B receptor at 10 uM by cell-based radioligand binding assay.
The target of the next assay is D(2) dopamine receptor (Homo sapiens, UniProt P14416). The assay can be described thus: Displacement of [3H]-N-Methylspiperone from human D2 receptor at 10 uM by cell-based radioligand binding assay.
D(2) dopamine receptor, sequence (P14416 whole entry): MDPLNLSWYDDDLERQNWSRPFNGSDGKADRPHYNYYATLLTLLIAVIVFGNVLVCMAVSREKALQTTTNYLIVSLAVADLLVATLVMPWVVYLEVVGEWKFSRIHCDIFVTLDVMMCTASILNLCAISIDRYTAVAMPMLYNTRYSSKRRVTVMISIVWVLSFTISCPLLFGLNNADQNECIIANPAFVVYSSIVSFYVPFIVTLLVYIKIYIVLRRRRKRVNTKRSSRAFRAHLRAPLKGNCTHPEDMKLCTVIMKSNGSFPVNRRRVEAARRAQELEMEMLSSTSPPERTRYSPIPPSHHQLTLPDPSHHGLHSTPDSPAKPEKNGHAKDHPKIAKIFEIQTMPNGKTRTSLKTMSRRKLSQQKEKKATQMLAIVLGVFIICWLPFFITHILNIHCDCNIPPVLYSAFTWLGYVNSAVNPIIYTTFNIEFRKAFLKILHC
The target of assay [3] is Kappa-type opioid receptor (Homo sapiens, UniProt P41145). Put plainly: Displacement of [3H]-U69593 human KOR receptor at 10 uM by cell-based radioligand binding assay.
Kappa-type opioid receptor, sequence (P41145 whole entry): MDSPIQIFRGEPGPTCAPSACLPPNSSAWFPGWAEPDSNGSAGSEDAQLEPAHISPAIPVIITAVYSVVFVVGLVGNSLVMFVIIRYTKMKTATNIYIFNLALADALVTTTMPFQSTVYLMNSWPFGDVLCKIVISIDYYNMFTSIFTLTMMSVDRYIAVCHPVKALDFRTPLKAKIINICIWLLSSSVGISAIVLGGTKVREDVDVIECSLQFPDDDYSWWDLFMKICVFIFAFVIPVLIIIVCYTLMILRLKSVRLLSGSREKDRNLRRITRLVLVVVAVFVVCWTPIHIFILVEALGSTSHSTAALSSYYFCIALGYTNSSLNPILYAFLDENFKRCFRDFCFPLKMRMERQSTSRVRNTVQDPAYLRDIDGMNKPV
The nature of assay [4]: Activation of GIRK channel (unknown origin) assessed as increase in fluorescence analysis. More on the design: species or system Homo sapiens.
Assay [5] addresses T1, Cannabinoid receptor 1 (Homo sapiens, UniProt P21554). Put plainly: Agonist activity at CB1 receptor in MDA-MB-231 cells at 300 uM by FLIPR assay. The format is functional, cell-based.
Assay [6] has as its target T1, Cannabinoid receptor 1. Put plainly: Agonist activity at CB1 receptor in MDA-MB-231 cells at 100 to 300 uM by FLIPR assay. It is filed as functional, cell-based. The following applies: filed as agonist, dose 100-300 µM.
In assay [7] the target is T1, Cannabinoid receptor 1. Put plainly: Agonist activity at CB1 receptor in human MDA-MB-231 cells by FLIPR assay. The format is functional, cell-based.
The target of a further assay is Translocator protein (Homo sapiens, UniProt P30536). The assay can be described thus: Displacement of [3H]-PK11195 from human PBR receptor at 10 uM by cell-based radioligand binding assay.
Translocator protein, sequence (P30536 whole entry): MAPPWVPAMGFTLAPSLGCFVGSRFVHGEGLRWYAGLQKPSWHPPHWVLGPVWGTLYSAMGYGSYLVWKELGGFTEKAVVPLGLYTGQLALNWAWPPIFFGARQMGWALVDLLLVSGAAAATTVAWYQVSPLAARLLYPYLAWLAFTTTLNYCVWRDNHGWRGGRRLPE
A further assay addresses Histamine H1 receptor (Homo sapiens, UniProt P35367). Put plainly: Binding affinity to H1 receptor (unknown origin) assessed as inhibition constant.
The target of assay [8] is Sigma non-opioid intracellular receptor 1 (Homo sapiens, UniProt Q99720). The assay can be described thus: Displacement of [3H]-pentazocine from human Sigma 1 receptor at 10 uM by cell-based radioligand binding assay.
Sigma non-opioid intracellular receptor 1, sequence (Q99720 whole entry): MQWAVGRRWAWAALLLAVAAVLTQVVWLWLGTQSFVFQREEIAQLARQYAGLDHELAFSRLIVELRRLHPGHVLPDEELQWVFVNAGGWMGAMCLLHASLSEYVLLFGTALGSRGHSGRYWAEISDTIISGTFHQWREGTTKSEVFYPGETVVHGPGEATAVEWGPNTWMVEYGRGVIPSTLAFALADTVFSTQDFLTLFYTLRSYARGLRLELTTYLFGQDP
For the next assay, the target named is T2, D(4) dopamine receptor (Homo sapiens, UniProt P21917).
T2 sequence (P21917 whole entry): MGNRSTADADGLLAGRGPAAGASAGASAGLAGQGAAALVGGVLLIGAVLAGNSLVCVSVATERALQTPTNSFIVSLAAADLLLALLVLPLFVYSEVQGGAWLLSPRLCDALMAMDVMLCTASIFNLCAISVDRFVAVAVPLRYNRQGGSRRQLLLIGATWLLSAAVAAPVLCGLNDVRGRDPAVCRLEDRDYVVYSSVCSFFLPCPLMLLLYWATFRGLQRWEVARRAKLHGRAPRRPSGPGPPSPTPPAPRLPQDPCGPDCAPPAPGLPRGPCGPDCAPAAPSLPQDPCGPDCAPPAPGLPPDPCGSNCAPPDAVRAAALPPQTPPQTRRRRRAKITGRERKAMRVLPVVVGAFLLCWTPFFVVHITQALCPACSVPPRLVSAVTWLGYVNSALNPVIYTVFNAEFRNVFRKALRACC
The assay can be described thus: Displacement of [3H]-N-methylspiperone from human D4 receptor at 10 uM by cell-based radioligand binding assay.

Assay [9] concerns the target Sodium-dependent noradrenaline transporter (Homo sapiens, UniProt P23975). The assay can be described thus: Binding affinity to NET receptor (unknown origin) assessed as inhibition constant.
In a further assay the target is D(3) dopamine receptor (Homo sapiens, UniProt P35462). Put plainly: Displacement of [3H]-N-Methylspiperone from human D3 receptor at 10 uM by cell-based radioligand binding assay.
D(3) dopamine receptor, sequence (P35462 whole entry): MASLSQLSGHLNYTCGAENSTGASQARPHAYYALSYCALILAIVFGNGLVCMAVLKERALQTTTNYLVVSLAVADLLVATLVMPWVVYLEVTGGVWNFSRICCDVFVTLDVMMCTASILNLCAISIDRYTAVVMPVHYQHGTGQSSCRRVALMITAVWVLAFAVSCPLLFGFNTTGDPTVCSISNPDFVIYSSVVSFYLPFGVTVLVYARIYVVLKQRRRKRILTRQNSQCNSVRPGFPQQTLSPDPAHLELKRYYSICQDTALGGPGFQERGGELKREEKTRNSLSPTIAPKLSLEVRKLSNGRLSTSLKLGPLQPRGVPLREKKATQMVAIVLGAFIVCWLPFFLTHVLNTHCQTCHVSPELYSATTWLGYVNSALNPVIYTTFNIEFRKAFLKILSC

T1 sequence (P21554 whole entry): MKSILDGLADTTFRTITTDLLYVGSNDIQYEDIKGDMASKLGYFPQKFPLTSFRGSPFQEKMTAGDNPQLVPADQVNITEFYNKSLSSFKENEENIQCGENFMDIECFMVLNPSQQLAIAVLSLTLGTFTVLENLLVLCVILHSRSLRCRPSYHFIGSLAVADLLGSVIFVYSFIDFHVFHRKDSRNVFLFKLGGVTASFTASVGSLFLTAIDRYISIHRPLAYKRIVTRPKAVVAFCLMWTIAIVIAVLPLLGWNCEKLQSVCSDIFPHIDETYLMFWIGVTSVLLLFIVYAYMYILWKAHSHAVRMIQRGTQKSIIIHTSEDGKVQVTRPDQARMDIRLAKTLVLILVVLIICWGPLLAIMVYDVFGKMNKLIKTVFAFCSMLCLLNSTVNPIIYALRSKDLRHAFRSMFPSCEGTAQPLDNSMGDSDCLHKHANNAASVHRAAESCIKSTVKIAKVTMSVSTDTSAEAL
5-hydroxytryptamine receptor 2B, sequence (P41595 whole entry): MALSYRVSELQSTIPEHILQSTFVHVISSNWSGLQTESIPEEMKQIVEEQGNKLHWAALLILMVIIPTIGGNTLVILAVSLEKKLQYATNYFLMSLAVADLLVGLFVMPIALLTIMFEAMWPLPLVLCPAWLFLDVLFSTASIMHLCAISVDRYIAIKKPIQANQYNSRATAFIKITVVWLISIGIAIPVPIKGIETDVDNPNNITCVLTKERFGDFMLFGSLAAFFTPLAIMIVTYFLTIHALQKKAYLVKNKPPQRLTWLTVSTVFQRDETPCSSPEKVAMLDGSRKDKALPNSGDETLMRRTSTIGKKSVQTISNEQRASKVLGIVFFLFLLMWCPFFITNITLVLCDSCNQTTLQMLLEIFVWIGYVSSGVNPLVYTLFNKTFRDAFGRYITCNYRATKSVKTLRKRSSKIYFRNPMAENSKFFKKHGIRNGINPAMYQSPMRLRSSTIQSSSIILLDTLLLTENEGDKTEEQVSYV
Histamine H1 receptor, sequence (P35367 whole entry): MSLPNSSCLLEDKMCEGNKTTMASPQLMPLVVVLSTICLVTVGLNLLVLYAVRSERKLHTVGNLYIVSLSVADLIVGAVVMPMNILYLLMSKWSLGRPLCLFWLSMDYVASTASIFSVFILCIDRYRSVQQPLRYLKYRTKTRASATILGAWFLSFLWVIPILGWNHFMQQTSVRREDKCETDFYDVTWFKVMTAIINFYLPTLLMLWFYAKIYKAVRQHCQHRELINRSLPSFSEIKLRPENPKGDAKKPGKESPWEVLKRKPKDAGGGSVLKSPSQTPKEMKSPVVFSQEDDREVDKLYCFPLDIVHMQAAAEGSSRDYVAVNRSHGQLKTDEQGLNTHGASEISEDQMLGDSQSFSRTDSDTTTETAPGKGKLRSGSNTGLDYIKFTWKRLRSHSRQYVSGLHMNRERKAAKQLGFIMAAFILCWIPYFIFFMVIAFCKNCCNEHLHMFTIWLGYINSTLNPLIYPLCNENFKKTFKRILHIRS
Sodium-dependent noradrenaline transporter, sequence (P23975 whole entry): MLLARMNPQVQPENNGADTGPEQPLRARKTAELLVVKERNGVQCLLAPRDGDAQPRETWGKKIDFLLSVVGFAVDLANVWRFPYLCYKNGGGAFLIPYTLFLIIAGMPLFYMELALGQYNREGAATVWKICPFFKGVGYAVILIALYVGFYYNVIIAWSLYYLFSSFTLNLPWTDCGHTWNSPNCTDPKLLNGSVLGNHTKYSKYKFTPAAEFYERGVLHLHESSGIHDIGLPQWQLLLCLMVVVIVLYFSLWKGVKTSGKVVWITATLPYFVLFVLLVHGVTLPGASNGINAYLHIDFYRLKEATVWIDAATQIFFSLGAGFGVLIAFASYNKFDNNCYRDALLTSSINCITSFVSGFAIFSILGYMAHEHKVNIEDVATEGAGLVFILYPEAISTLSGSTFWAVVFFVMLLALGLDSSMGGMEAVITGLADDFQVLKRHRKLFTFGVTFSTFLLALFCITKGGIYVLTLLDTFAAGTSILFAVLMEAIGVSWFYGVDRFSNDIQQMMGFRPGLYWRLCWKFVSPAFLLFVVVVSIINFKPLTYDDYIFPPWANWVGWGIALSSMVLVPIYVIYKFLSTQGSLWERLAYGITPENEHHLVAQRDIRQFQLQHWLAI

For orientation: Ki means the dissociation constant of the complex between target and ligand, obtained from inhibition or displacement. Turning to `C=C(C)[C@@H]1CCC(C)=C[C@H]1c1c(OC)cc(CCCCC)cc1OCCCCCCCCOc1cc(CCCCC)cc(OC)c1[C@@H]1C=C(C)CC[C@H]1C(=C)C`, the Ki was 2.7 µM in assay [1] and greater than 10 µM in [2].
Compound `Cn1ccc2cc3c(cc21)CCN3C(=O)Nc1cccnc1` showed an inhibitory constant (Ki) in assay [2] of 0.0047 µM.
`C=C(C)[C@@H]1CCC(C)=C[C@H]1c1c(OC)cc(CCCCC)cc1OCCOCCOCCOCCOc1cc(CCCCC)cc(OC)c1[C@@H]1C=C(C)CC[C@H]1C(=C)C` yielded a Ki in assay [1] of 8.1 µM.
For `C=C(C)[C@@H]1CCC(C)=C[C@H]1c1c(OC)cc(CCCCC)cc1OCCCCCCOc1cc(CCCCC)cc(OC)c1[C@@H]1C=C(C)CC[C@H]1C(=C)C`, the inhibition constant Ki in [1] is 5.5 µM; in assay [2], 8.7 µM.
In the same order, the values of `C=C(C)[C@H]1CCC(C)=C[C@@H]1c1c(O)cc(CCCCC)cc1OCCCCCOc1cc(CCCCC)cc(O)c1[C@@H]1C=C(C)CC[C@H]1C(=C)C` are 6.9 µM and 2.1 µM.
As to `C=C(C)[C@@H]1CCC(C)=C[C@H]1c1c(O)cc(CCCCC)cc1OCCCCCCCCCCCCOc1cc(CCCCC)cc(O)c1[C@@H]1C=C(C)CC[C@H]1C(=C)C`, the Ki on D(2) dopamine receptor was greater than 10 µM; in assay [3], 1.7 µM; in [2], 2.4 µM.
For orientation: EC50 means the concentration giving half of the maximal effect. With `Cc1c(C(=O)c2cccc3ccccc23)c2cccc3c2n1[C@H](CN1CCOCC1)CO3` [WIN-552122], in [4], the EC50 came to 13.1 µM.
With `C=C(C)[C@@H]1CCC(C)=C[C@H]1c1c(O)cc(CCCCC)cc1O`, on Cannabinoid receptor 1 [5], the outcome was inactive.
Turning to `C=C(C)[C@@H]1CCC(C)=C[C@H]1c1c(OC)cc(CCCCC)cc1OCCCOc1cc(CCCCC)cc(OC)c1[C@@H]1C=C(C)CC[C@H]1C(=C)C`, the outcome at Cannabinoid receptor 1 [6] was Active. Also, at Cannabinoid receptor 1 [7], the concentration giving a half-maximal response (EC50) is 42.2 µM. Also, the inhibition constant (Ki) came out at 2.7 µM on Translocator protein and 3.4 µM in [1].
As for `C=C(C)[C@@H]1CCC(C)=C[C@H]1c1c(OC)cc(CCCCC)cc1OCCCCCOc1cc(CCCCC)cc(OC)c1[C@@H]1C=C(C)CC[C@H]1C(=C)C`, the result on Cannabinoid receptor 1 [6] was Active. In addition, the response on Cannabinoid receptor 1 [7] was half-maximal at 40 µM (EC50).
Regarding `C=C(C)[C@@H]1CCC(C)=C[C@H]1c1c(O)cc(CCCCC)cc1OCCCCCCCOc1cc(CCCCC)cc(O)c1[C@@H]1C=C(C)CC[C@H]1C(=C)C`, the figures for the Ki (at D(2) dopamine receptor; in assay [2]) were 0.6 µM and 1.8 µM, respectively.
Consider `C=C(C)[C@@H]1CCC(C)=C[C@H]1c1c(OC)cc(CCCCC)cc1OCCCCOc1cc(CCCCC)cc(OC)c1[C@@H]1C=C(C)CC[C@H]1C(=C)C`, for which, on Histamine H1 receptor, the Ki turned out to be 0.6 µM.
In the case of `C=C(C)[C@H]1CCC(C)=C[C@@H]1c1c(O)cc(CCCCC)cc1OCCOc1cc(CCCCC)cc(O)c1[C@@H]1C=C(C)CC[C@H]1C(=C)C`, the Ki in assay [1] came out at 0.8 µM; in assay [2] it was 1.7 µM.
For the compound `C=C(C)[C@H]1CCC(C)=C[C@@H]1c1c(O)cc(CCCCC)cc1OCCCCCCCCOc1cc(CCCCC)cc(O)c1[C@@H]1C=C(C)CC[C@H]1C(=C)C`, the Ki turned out to be 1.9 µM in assay [1], 1.9 µM in assay [8] and 4.5 µM in assay [2].
Take `C=C(C)[C@H]1CCC(C)=C[C@@H]1c1c(O)cc(CCCCC)cc1OCCCCCCOc1cc(CCCCC)cc(O)c1[C@@H]1C=C(C)CC[C@H]1C(=C)C`: the Ki in assay [1] was 0.7 µM.
Turning to `C=C(C)[C@H]1CCC(C)=C[C@@H]1c1c(OC)cc(CCCCC)cc1OCCCCCCCCCCCCOc1cc(CCCCC)cc(OC)c1[C@H]1C=C(C)CC[C@@H]1C(=C)C`, the results for the Ki (on Translocator protein; in assay [2]) were 0.9 µM and 6.6 µM, respectively.
As to `C=C(C)[C@@H]1CCC(C)=C[C@H]1c1c(O)cc(CCCCC)c2c1OCC2`, the Ki was 0.4 µM on D(2) dopamine receptor; 0.5 µM at D(4) dopamine receptor; 1.8 µM in [8]; 5.7 µM in [9]; 0.4 µM on D(3) dopamine receptor; 3.3 µM in assay [2].
Turning to `C=C(C)[C@H]1CCC(C)=C[C@@H]1c1c(O)cc(CCCCC)cc1OCCCCOc1cc(CCCCC)cc(O)c1[C@@H]1C=C(C)CC[C@H]1C(=C)C`, in [1], affinity was put at a Ki of 5.5 µM.
Same read-out and setting: with `C=C(C)[C@H]1CCC(C)=C[C@@H]1c1c(OC)cc(CCCCC)cc1OCCCCCCCOc1cc(CCCCC)cc(OC)c1[C@H]1C=C(C)CC[C@@H]1C(=C)C` the figure was 4.7 µM.
